Data: ChEMBL document CHEMBL1201862, “PubChem BioAssay data set” (2004)
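In this assay, cells in 96-well plates receive the compound at five concentrations for 48 hours. Endpoints are linearly interpolated between the surrounding concentrations. GI50: concentration for 50% inhibition of growth.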 Active and inactive are the calls of the source. Cut-off read from the data, not from the text of the source: active = GI50 up to about 1.1 µM and inactive = higher.

Legend:
Experiment in all cases: NCI tumour cell line growth inhibition, 48 h
[1] = tested on: UACC-62
[2] = tested on: HCT-116
[3] = tested on: SF-295
[4] = tested on: OVCAR-3
[5] = tested on: NCI-H23
[6] = tested on: MCF7
[7] = tested on: IGROV-1
[8] = tested on: Hs-578T
[9] = tested on: UO-31
[10] = tested on: UACC-257
[11] = tested on: TK-10
[12] = tested on: HOP-92
[13] = tested on: K562
[14] = tested on: SW-620
[15] = tested on: SF-539
[16] = tested on: OVCAR-5
[17] = tested on: ACHN
[18] = tested on: OVCAR-4
[19] = tested on: CCRF-CEM
[20] = tested on: OVCAR-8

Row | Compound | GI50 [1] | GI50 [2] | GI50 [3] | GI50 [4] | GI50 [5] | GI50 [6] | GI50 [7] | GI50 [8] | GI50 [9] | GI50 [10] | GI50 [11] | GI50 [12] | GI50 [13] | GI50 [14] | GI50 [15] | GI50 [16] | GI50 [17] | GI50 [18] | GI50 [19] | GI50 [20]
1 | CCOC(=O)Nc1ccc2c(c1)c(CCCCCCc1nc3ccccc3c3ccc(NC(=O)OCC)cc13)nc1ccccc12 | > 100 µM (inactive) | 54.3 µM (inactive) | 49.5 µM (inactive) | 21.3 µM (inactive) | > 100 µM (inactive) | > 100 µM (inactive) | > 100 µM (inactive) | > 100 µM (inactive) | 68.4 µM (inactive) | 47.2 µM (inactive) | 26.2 µM (inactive) | 21.8 µM (inactive) | 80 µM (inactive) | > 100 µM (inactive) | 12.5 µM (inactive) | > 100 µM (inactive) | 39 µM (inactive) | 29.3 µM (inactive) | > 100 µM (inactive) | 25.4 µM (inactive)
2 | O=C(O)Cn1ncn(NC(=O)Cc2ccccc2)c1=S | > 10 µM (inactive) | > 10 µM (inactive) | > 10 µM (inactive) | > 10 µM (inactive) | > 10 µM (inactive) | > 10 µM (inactive) | > 10 µM (inactive) | > 10 µM (inactive) | > 10 µM (inactive) | > 10 µM (inactive) | > 10 µM (inactive) | > 10 µM (inactive) | > 10 µM (inactive) | > 10 µM (inactive) | > 10 µM (inactive) | > 10 µM (inactive) | > 10 µM (inactive) | > 10 µM (inactive) | > 10 µM (inactive) | > 10 µM (inactive)
3 | COC(=O)/N=[N+](\[O-])C(c1ccc(OC)cc1)C1CCCCC1 (stereo not given) | 6.03 µM (inactive) | 0.652 µM (active) | 1.82 µM (inactive) | 6.15 µM (inactive) | 0.664 µM (active) | 7.35 µM (inactive) | 4.18 µM (inactive) | 6.3 µM (inactive) | 5.82 µM (inactive) | 1.47 µM (inactive) | 3.58 µM (inactive) | 5.85 µM (inactive) | 2.67 µM (inactive) | 3.4 µM (inactive) | 12.3 µM (inactive) | 2.58 µM (inactive) | 2.56 µM (inactive) | 0.802 µM (active) | 2.2 µM (inactive) | 4.75 µM (inactive)
4 | CC(=O)OCC1C(=O)OCC1C(=O)N1Cc2cc3ccccc3nc2C1 (stereo not given) | 3.46 µM (inactive) | 1.27 µM (inactive) | 16.1 µM (inactive) | 1.57 µM (inactive) | 3.39 µM (inactive) | 1.48 µM (inactive) | 10.1 µM (inactive) | 7.14 µM (inactive) | 3.95 µM (inactive) | 2.47 µM (inactive) | 1.61 µM (inactive) | 1.24 µM (inactive) | 0.676 µM (active) | 0.469 µM (active) | 6 µM (inactive) | 5.69 µM (inactive) | 1.36 µM (inactive) | 1.65 µM (inactive) | 0.488 µM (active) | 3.2 µM (inactive)
5 | CC(C)(C)c1cc2c(OC/C=C/c3ccccc3)c(c1)Cc1cc(C(C#N)(OC/C=C/c3ccccc3)OC/C=C/c3ccccc3)cc(c1OC/C=C\c1ccccc1)Cc1cc(C(C)(C)C)cc(c1OC/C=C/c1ccccc1)Cc1cc(C(C#N)(OC/C=C\c3ccccc3)OC/C=C/c3ccccc3)cc(c1OC/C=C\c1ccccc1)C2 (stereo not given) | > 100 µM (inactive) | > 100 µM (inactive) | > 100 µM (inactive) | > 100 µM (inactive) | > 100 µM (inactive) | > 100 µM (inactive) | > 100 µM (inactive) | > 100 µM (inactive) | > 100 µM (inactive) | > 100 µM (inactive) | 1.95 µM (inactive) | 95.5 µM (inactive) | > 100 µM (inactive) | > 100 µM (inactive) | > 100 µM (inactive) | > 100 µM (inactive) | > 100 µM (inactive) | > 100 µM (inactive) | > 100 µM (inactive) | > 100 µM (inactive)
6 | NC1=C(c2nc(-c3ccccc3)cs2)C(c2ccco2)c2c(c3ccccc3oc2=O)O1 (stereo not given) | > 100 µM (inactive) | > 100 µM (inactive) | > 100 µM (inactive) | > 100 µM (inactive) | > 100 µM (inactive) | > 100 µM (inactive) | > 100 µM (inactive) | 3.32 µM (inactive) | > 100 µM (inactive) | > 100 µM (inactive) | > 100 µM (inactive) | 53.3 µM (inactive) | > 100 µM (inactive) | > 100 µM (inactive) | > 100 µM (inactive) | > 100 µM (inactive) | > 100 µM (inactive) | > 100 µM (inactive) | > 100 µM (inactive) | > 100 µM (inactive)
7 | COc1ccc2nc3ccccc3c(NCCCCCN(CCCl)CCCl)c2c1 | 0.036 µM (active) | 0.0295 µM (active) | 0.0255 µM (active) | 0.0675 µM (active) | 0.0863 µM (active) | < 0.01 µM (active) | 0.177 µM (active) | 0.358 µM (active) | 0.0705 µM (active) | 1.03 µM (active) | 0.381 µM (active) | 0.04 µM (active) | 0.0229 µM (active) | 0.0227 µM (active) | 0.0787 µM (active) | 0.207 µM (active) | 0.0266 µM (active) | 0.0658 µM (active) | 0.0151 µM (active) | 0.0274 µM (active)
8 | CCNC(=S)/N=c1\sc(NCC)nc2sc3c(c12)CCN(N1CCc2c(sc4nc(NCC)s/c(=N\C(=S)NCC)c24)C1)C3 | > 100 µM (inactive) | 19.5 µM (inactive) | 72.4 µM (inactive) | > 100 µM (inactive) | > 100 µM (inactive) | > 100 µM (inactive) | 39.8 µM (inactive) | > 100 µM (inactive) | > 100 µM (inactive) | > 100 µM (inactive) | > 100 µM (inactive) | 5.31 µM (inactive) | 27.7 µM (inactive) | 34.7 µM (inactive) | 15.5 µM (inactive) | > 100 µM (inactive) | 62.8 µM (inactive) | 86.1 µM (inactive) | 41.9 µM (inactive) | 60.4 µM (inactive)
9 | Cc1cccc(CC(Cc2ccc(C)cc2C(=O)O)C(=O)O)c1 (stereo not given) | 42 µM (inactive) | > 100 µM (inactive) | > 100 µM (inactive) | > 100 µM (inactive) | > 100 µM (inactive) | > 100 µM (inactive) | > 100 µM (inactive) | > 100 µM (inactive) | > 100 µM (inactive) | > 100 µM (inactive) | > 100 µM (inactive) | > 100 µM (inactive) | > 100 µM (inactive) | > 100 µM (inactive) | > 100 µM (inactive) | > 100 µM (inactive) | > 100 µM (inactive) | > 100 µM (inactive) | > 100 µM (inactive) | > 100 µM (inactive)
10 | Cc1ncc([N+](=O)[O-])n1CCNC(=O)CCCn1cnc([N+](=O)[O-])n1 | > 100 µM (inactive) | > 100 µM (inactive) | > 100 µM (inactive) | > 100 µM (inactive) | > 100 µM (inactive) | > 100 µM (inactive) | > 100 µM (inactive) | > 100 µM (inactive) | > 100 µM (inactive) | > 100 µM (inactive) | > 45.8 µM (inactive) | > 100 µM (inactive) | > 100 µM (inactive) | > 71.8 µM (inactive) | > 100 µM (inactive) | > 100 µM (inactive) | > 100 µM (inactive) | > 100 µM (inactive) | > 100 µM (inactive) | > 95.9 µM (inactive)
